Measurements: PubChem BioAssay AID256 (DTP/NCI, 2004)
Where “and” joins values, the source holds several entries; their conditions need not be identical. Identical values can stand only once. Inconclusive results and toxic doses are left out.

System: CD2F1 mice, L1210 leukemia ip, survival T/C
Test: NCI In Vivo Anticancer Drug Screen. Data for tumor model L1210 Leukemia (intraperitoneal) in CD2F1 (CDF1) mice
Conditions: endpoint: mean survival time, higher = longer survival
How it was run: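 Compound-dosed mice with transplantable tumor versus matched vehicle controls; endpoint ratio T/C reported.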

[1] = dose: 100.0 mg/kg/injection, schedule: Q01DX009 (ip), vehicle: saline with Tween-80
[2] = dose: 200.0 mg/kg/injection, schedule: Q01DX009 (ip), vehicle: saline with Tween-80
[3] = dose: 400.0 mg/kg/injection, schedule: Q01DX009 (ip), vehicle: saline with Tween-80
[4] = dose: 50.0 mg/kg/injection, schedule: Q01DX009 (ip), vehicle: Klucel (hydroxypropylcellulose) (HPC)
[5] = dose: 12.5 mg/kg/injection, schedule: Q01DX009 (ip), vehicle: saline with Tween-80
[6] = dose: 25.0 mg/kg/injection, schedule: Q01DX009 (ip), vehicle: saline with Tween-80
[7] = dose: 100.0 mg/kg/injection, schedule: Q01DX001 (ip), vehicle: saline
[8] = dose: 200.0 mg/kg/injection, schedule: Q01DX001 (ip), vehicle: saline
[9] = dose: 50.0 mg/kg/injection, schedule: Q01DX009 (ip), vehicle: saline with Tween-80
[10] = dose: 100.0 mg/kg/injection, schedule: Q01DX001 (ip), vehicle: saline with Tween-80
[11] = dose: 200.0 mg/kg/injection, schedule: Q01DX001 (ip), vehicle: saline with Tween-80
[12] = dose: 400.0 mg/kg/injection, schedule: Q01DX001 (ip), vehicle: saline with Tween-80
[13] = dose: 75.0 mg/kg/injection, schedule: Q01DX001 (ip), vehicle: saline
[14] = dose: 150.0 mg/kg/injection, schedule: Q01DX001 (ip), vehicle: saline
[15] = dose: 300.0 mg/kg/injection, schedule: Q01DX001 (ip), vehicle: saline
[16] = dose: 100.0 mg/kg/injection, schedule: Q04DX003 (ip), vehicle: saline with Tween-80
[17] = dose: 200.0 mg/kg/injection, schedule: Q04DX003 (ip), vehicle: saline with Tween-80
[18] = dose: 400.0 mg/kg/injection, schedule: Q04DX003 (ip), vehicle: saline with Tween-80

## O=C(O)CCCCSc1ncnc2nc[nH]c12
[1]
  T/C: 90 % of control
[2]
  T/C: 95 % of control
[3]
  T/C: 102 % of control

## COc1ccc(C(=O)c2ccc(OC)cc2)cc1
[4]
  T/C: 100 % of control
dose: 100.0 mg/kg/injection, schedule: Q01DX009 (ip), vehicle: Klucel (hydroxypropylcellulose) (HPC)
  T/C: 93 % of control
dose: 200.0 mg/kg/injection, schedule: Q01DX009 (ip), vehicle: Klucel (hydroxypropylcellulose) (HPC)
  T/C: 86 % of control

## CC(C)(C)C1CCC(=O)C1 (centres undefined)
[5]
  T/C: 87 % of control
[6]
  T/C: 95 % of control

## CC1=CSC2=NC(=O)CCN12
[7]
  T/C: 93 % of control
[8]
  T/C: 100 % of control
dose: 400.0 mg/kg/injection, schedule: Q01DX001 (ip), vehicle: saline
  T/C: 90 % of control

## COc1ccc(NC(=O)Oc2ccc(C3CCCCC3)cc2)cc1
[6]
  T/C: 97 % of control
dose: 25.0 mg/kg/injection, schedule: Q04DX002 (ip), vehicle: saline with Tween-80
  T/C: 104 % of control
[9]
  T/C: 93 % of control
dose: 50.0 mg/kg/injection, schedule: Q04DX002 (ip), vehicle: saline with Tween-80
  T/C: 104 % of control
[1]
  T/C: 89 % of control
dose: 100.0 mg/kg/injection, schedule: Q04DX002 (ip), vehicle: saline with Tween-80
  T/C: 101 % of control
dose: 200.0 mg/kg/injection, schedule: Q04DX002 (ip), vehicle: saline with Tween-80
  T/C: 108 % of control

## O=C(CCCl)c1ccc2c(c1)OCO2
[7]
  T/C: 104 % of control
[8]
  T/C: 96 % of control

## Cc1c(O)c(Br)c(C)c(O)c1Br (tested in a mixture with another compound)
[7]
  T/C: 98 % of control
[8]
  T/C: 101 % of control

## NC(=O)c1nn(C2OC(CO)C(O)C2O)c2ncnc(N)c12 (centres undefined)
dose: 25.0 mg/kg/injection, schedule: Q01DX009 (ip), vehicle: Klucel (hydroxypropylcellulose) (HPC)
  T/C: 207 % of control
[4]
  T/C: 200 % of control

## Nc1nc(Cl)nc(Cl)n1
dose: 12.5 mg/kg/injection, schedule: Q01DX001 (ip), vehicle: saline with Tween-80
  T/C: 102 % of control
dose: 25.0 mg/kg/injection, schedule: Q01DX001 (ip), vehicle: saline with Tween-80
  T/C: 105 % of control
dose: 50.0 mg/kg/injection, schedule: Q01DX001 (ip), vehicle: saline with Tween-80
  T/C: 100 % of control

## CC1CCc2c(nc(C#N)c(=N)n2O)C1 (centres undefined)
dose: 100.0 mg/kg/injection, schedule: Q04DX003 (ip), vehicle: Klucel (hydroxypropylcellulose) (HPC)
  T/C: 102 % of control
dose: 200.0 mg/kg/injection, schedule: Q04DX003 (ip), vehicle: Klucel (hydroxypropylcellulose) (HPC)
  T/C: 106 % of control
dose: 400.0 mg/kg/injection, schedule: Q04DX003 (ip), vehicle: Klucel (hydroxypropylcellulose) (HPC)
  T/C: 98 % of control

## CCN(C(=O)Nc1ccc(Cl)cc1)c1ccccc1C
[1]
  T/C: 97 % of control
[2]
  T/C: 94 % of control
[3]
  T/C: 90 % of control

## O=C(c1ccccc1)C(c1ccccc1)(c1ccccc1)c1ccccc1
[10]
  T/C: 93 % of control
[11]
  T/C: 89 % of control
[12]
  T/C: 89 % of control

## CCC/C=C(\C)C(C#N)CC (centres undefined)
[13]
  T/C: 100 % of control
[14]
  T/C: 97 % of control
[15]
  T/C: 101 % of control

## CC12CC=CCC1CCC/C2=N/O (centres undefined)
[10]
  T/C: 113 % of control
dose: 100.0 mg/kg/injection, schedule: Q04DX003 (ip), vehicle: acetone
  T/C: 96 % of control
[11]
  T/C: 97 % of control
dose: 200.0 mg/kg/injection, schedule: Q04DX003 (ip), vehicle: acetone
  T/C: 98 % of control
[12]
  T/C: 103 % of control
dose: 400.0 mg/kg/injection, schedule: Q04DX003 (ip), vehicle: acetone
  T/C: 96 % of control

## N#C/C(=C\c1cc(Cl)cc(Cl)c1O)c1ccc([N+](=O)[O-])cc1
[9]
  T/C: 89 % of control
[1]
  T/C: 95 % of control
[2]
  T/C: 96 % of control

## c1ccc2c(NCCCCCCNc3c4ccccc4nc4ccccc34)c3ccccc3nc2c1
dose: 0.62 mg/kg/injection, schedule: Q01DX009 (ip), vehicle: Klucel (hydroxypropylcellulose) (HPC)
  T/C: 103 % of control
dose: 1.25 mg/kg/injection, schedule: Q01DX009 (ip), vehicle: Klucel (hydroxypropylcellulose) (HPC)
  T/C: 114 % of control and 123 % of control and 111 % of control
dose: 2.5 mg/kg/injection, schedule: Q01DX009 (ip), vehicle: Klucel (hydroxypropylcellulose) (HPC)
  T/C: 115 % of control and 109 % of control
dose: 5.0 mg/kg/injection, schedule: Q01DX009 (ip), vehicle: Klucel (hydroxypropylcellulose) (HPC)
  T/C: 123 % of control and 111 % of control
dose: 10.0 mg/kg/injection, schedule: Q01DX009 (ip), vehicle: Klucel (hydroxypropylcellulose) (HPC)
  T/C: 111 % of control
dose: 20.0 mg/kg/injection, schedule: Q01DX009 (ip), vehicle: Klucel (hydroxypropylcellulose) (HPC)
  T/C: 104 % of control

## Cc1ccc(C2CC(c3ccccc3)=NN2C)cc1 (centres undefined)
dose: 75.0 mg/kg/injection, schedule: Q01DX001 (ip), vehicle: other
  T/C: 96 % of control
dose: 150.0 mg/kg/injection, schedule: Q01DX001 (ip), vehicle: other
  T/C: 90 % of control
dose: 300.0 mg/kg/injection, schedule: Q01DX001 (ip), vehicle: other
  T/C: 93 % of control

## c1ccc2c(c1)nnn1c3ncccc3nc21
[13]
  T/C: 98 % of control
[14]
  T/C: 92 % of control
[15]
  T/C: 93 % of control

## Cc1nc(N)nc(N)n1
[16]
  T/C: 100 % of control
[17]
  T/C: 100 % of control
[18]
  T/C: 97 % of control

## O=C1C2CC=CC2C1(Cl)Cl (centres undefined)
[13]
  T/C: 91 % of control
[14]
  T/C: 94 % of control
[15]
  T/C: 91 % of control

## C[n+]1c2ccccc2c(Nc2ccc(NS(=O)(=O)CCCCN=C(N)N)cc2)c2ccc(N)cc21
dose: 6.25 mg/kg/injection, schedule: Q01DX009 (ip), vehicle: water
  T/C: 314 % of control

## CCCCCCCCCCCCCCCC(=O)O[C@@]12C[C@@H](C)[C@@]3(O)[C@@H](C=C(CO)C[C@]4(O)C(=O)C(C)=C[C@@H]34)[C@@H]1C2(C)C
dose: 0.06 mg/kg/injection, schedule: Q01DX009 (ip), vehicle: other
  T/C: 98 % of control
dose: 0.12 mg/kg/injection, schedule: Q01DX009 (ip), vehicle: saline
  T/C: 103 % of control
dose: 0.13 mg/kg/injection, schedule: Q01DX009 (ip), vehicle: other
  T/C: 88 % of control
dose: 0.25 mg/kg/injection, schedule: Q01DX009 (ip), vehicle: other
  T/C: 94 % of control
dose: 0.25 mg/kg/injection, schedule: Q01DX009 (ip), vehicle: saline
  T/C: 102 % of control
dose: 0.5 mg/kg/injection, schedule: Q01DX009 (ip), vehicle: other
  T/C: 102 % of control
dose: 0.5 mg/kg/injection, schedule: Q01DX009 (ip), vehicle: saline
  T/C: 103 % of control
dose: 1.0 mg/kg/injection, schedule: Q01DX009 (ip), vehicle: saline
  T/C: 102 % of control

## C=CCc1ccc(OC(=O)Nc2ccc(C)c([N+](=O)[O-])c2)c(OC)c1
[5]
  T/C: 98 % of control
[6]
  T/C: 103 % of control
[9]
  T/C: 98 % of control
[2]
  T/C: 88 % of control

## O=[N+]([O-])c1cccc(S(=O)(=O)O)c1.[Fe]
dose: 50.0 mg/kg/injection, schedule: Q01DX009 (ip), vehicle: saline
  T/C: 103 % of control
dose: 100.0 mg/kg/injection, schedule: Q01DX009 (ip), vehicle: saline
  T/C: 91 % of control

## CS(=O)(=O)c1ncc[nH]1
[16]
  T/C: 100 % of control
[17]
  T/C: 109 % of control
[18]
  T/C: 109 % of control

## N#CC1(C#N)OC1(C#N)c1ccccc1 (centres undefined)
dose: 3.0 mg/kg/injection, schedule: Q01DX009 (ip), vehicle: saline with Tween-80
  T/C: 101 % of control
dose: 6.25 mg/kg/injection, schedule: Q01DX001 (ip), vehicle: saline with Tween-80
  T/C: 95 % of control
dose: 12.0 mg/kg/injection, schedule: Q01DX009 (ip), vehicle: saline with Tween-80
  T/C: 98 % of control

## COc1ccc(C2C(C(C)=O)=C(C)NC(C)=C2C(C)=O)cc1
[16]
  T/C: 88 % of control
[17]
  T/C: 87 % of control
